Assay results taken from ChEMBL document CHEMBL4507274 (2021).

How the values were obtained:
[1] = target: Protein kinase C zeta type (Homo sapiens) (UniProt Q05513); test: PKCzeta (h) Upstate kinase activity assay; details: Compound concentration 10.0 uM
[2] = target: Proto-oncogene tyrosine-protein kinase receptor Ret (Homo sapiens) (UniProt P07949); test: Ret (h) Upstate kinase activity assay; details: Compound concentration 10.0 uM
[3] = target: BDNF/NT-3 growth factors receptor (Homo sapiens) (UniProt Q16620); test: TrkB (h) Upstate kinase activity assay; details: Compound concentration 10.0 uM
Sequence of BDNF/NT-3 growth factors receptor (Homo sapiens) (Q16620 32-822 limits assumed): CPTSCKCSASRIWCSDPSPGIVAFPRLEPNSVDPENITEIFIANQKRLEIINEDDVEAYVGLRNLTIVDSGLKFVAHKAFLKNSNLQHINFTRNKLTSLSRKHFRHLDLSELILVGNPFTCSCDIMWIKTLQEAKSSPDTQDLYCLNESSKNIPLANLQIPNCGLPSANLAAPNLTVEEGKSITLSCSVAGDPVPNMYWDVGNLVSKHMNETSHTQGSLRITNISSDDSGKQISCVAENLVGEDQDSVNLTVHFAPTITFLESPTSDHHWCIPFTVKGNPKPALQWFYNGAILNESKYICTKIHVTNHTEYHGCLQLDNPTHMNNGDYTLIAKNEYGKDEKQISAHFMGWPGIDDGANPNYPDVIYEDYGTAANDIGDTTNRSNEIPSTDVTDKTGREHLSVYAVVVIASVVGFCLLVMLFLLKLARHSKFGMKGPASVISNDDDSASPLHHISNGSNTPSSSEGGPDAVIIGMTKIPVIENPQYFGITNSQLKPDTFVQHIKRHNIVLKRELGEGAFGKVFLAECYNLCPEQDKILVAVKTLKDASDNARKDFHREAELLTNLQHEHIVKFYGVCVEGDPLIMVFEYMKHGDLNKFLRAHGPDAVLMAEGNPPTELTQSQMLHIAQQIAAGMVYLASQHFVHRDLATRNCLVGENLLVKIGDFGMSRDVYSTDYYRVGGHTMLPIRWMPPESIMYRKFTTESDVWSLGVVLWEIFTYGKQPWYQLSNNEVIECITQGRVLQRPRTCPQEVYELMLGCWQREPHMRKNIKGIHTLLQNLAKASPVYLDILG

[4] = target: T1, Tyrosine-protein kinase ZAP-70 (Homo sapiens) (UniProt P43403); test: ZAP-70 (h) Upstate kinase activity assay; details: Compound concentration 10.0 uM
T1 sequence (whole entry): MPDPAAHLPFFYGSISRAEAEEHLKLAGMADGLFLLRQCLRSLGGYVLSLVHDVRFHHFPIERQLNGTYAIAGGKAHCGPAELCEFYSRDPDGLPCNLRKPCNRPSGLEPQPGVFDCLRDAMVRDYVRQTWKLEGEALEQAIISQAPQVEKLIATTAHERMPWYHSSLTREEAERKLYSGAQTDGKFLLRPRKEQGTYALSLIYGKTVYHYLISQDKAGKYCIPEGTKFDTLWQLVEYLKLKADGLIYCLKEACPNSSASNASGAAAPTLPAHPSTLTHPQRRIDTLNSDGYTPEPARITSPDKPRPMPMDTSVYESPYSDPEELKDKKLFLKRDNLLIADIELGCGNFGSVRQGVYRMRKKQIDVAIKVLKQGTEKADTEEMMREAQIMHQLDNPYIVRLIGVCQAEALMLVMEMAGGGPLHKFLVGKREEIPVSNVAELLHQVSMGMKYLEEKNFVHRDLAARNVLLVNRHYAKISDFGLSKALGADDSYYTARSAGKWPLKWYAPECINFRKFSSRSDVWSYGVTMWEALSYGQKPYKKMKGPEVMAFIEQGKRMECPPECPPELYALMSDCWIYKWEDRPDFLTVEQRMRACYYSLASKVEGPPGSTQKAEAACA

[5] = target: Rho-associated protein kinase 2 (Rattus norvegicus) (UniProt Q62868); test: ROCK-2 (r) Upstate kinase activity assay; details: Compound concentration 10.0 uM
Sequence of Rho-associated protein kinase 2 (Rattus norvegicus) (Q62868 whole entry, looked up): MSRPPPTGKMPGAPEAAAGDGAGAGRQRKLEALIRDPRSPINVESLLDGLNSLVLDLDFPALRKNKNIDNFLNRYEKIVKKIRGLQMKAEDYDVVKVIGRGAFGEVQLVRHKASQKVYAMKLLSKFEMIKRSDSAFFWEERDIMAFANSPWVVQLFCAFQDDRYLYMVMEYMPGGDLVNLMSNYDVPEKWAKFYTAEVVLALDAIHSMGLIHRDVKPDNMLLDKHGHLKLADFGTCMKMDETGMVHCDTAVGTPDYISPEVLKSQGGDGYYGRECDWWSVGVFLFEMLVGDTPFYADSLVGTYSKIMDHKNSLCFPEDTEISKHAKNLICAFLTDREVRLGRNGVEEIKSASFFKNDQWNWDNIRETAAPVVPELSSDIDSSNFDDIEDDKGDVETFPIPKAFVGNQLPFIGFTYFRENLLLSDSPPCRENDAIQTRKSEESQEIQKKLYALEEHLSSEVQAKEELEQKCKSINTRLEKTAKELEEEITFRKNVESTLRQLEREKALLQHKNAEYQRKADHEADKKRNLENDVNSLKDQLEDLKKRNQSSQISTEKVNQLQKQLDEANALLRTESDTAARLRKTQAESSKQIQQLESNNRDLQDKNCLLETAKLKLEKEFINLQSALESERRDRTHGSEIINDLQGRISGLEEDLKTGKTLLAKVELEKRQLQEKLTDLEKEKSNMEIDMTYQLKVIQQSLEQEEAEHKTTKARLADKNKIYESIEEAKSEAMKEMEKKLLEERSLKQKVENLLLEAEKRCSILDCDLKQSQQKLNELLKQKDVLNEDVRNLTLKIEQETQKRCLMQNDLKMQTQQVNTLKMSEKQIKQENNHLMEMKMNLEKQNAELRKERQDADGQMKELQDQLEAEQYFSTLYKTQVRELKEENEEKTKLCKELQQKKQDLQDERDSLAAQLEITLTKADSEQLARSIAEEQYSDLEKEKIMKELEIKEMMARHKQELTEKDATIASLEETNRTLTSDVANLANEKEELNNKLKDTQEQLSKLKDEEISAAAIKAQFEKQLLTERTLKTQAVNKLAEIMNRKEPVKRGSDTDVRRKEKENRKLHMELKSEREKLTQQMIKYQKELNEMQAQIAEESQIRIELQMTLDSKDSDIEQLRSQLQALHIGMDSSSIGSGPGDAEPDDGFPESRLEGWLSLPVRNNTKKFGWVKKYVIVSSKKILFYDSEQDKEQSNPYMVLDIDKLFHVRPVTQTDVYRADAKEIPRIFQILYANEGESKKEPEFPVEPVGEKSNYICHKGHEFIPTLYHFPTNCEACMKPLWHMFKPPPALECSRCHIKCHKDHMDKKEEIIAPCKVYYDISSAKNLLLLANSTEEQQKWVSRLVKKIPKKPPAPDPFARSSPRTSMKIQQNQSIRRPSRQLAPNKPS

[6] = target: Ribosomal protein S6 kinase alpha-1 (Homo sapiens) (UniProt Q15418); test: Rsk1 (h) Upstate kinase activity assay; details: Compound concentration 10.0 uM
Sequence of Ribosomal protein S6 kinase alpha-1 (Homo sapiens) (Q15418 whole entry): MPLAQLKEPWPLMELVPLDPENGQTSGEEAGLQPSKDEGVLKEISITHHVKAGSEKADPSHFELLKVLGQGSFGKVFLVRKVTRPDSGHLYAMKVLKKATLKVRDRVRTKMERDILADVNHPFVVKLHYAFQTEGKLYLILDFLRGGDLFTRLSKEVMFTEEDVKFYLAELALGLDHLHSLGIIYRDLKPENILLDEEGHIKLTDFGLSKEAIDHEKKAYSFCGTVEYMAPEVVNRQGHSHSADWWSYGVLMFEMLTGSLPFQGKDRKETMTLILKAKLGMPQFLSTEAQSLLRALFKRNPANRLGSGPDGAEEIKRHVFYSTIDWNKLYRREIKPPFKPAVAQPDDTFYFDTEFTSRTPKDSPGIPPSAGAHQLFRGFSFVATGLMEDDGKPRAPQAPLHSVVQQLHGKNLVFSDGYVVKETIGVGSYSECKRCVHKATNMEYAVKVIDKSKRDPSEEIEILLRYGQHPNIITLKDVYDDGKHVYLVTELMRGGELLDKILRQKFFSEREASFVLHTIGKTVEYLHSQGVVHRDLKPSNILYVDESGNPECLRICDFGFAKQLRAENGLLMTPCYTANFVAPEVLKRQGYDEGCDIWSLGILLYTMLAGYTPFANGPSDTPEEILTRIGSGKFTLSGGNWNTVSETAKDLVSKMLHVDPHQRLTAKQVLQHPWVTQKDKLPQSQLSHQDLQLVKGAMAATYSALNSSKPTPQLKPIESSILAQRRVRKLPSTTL

[7] = target: Protein kinase C delta type (Homo sapiens) (UniProt Q05655); test: PKCdelta (h) Upstate kinase activity assay; details: Compound concentration 10.0 uM
Sequence of Protein kinase C delta type (Homo sapiens) (Q05655 whole entry, looked up): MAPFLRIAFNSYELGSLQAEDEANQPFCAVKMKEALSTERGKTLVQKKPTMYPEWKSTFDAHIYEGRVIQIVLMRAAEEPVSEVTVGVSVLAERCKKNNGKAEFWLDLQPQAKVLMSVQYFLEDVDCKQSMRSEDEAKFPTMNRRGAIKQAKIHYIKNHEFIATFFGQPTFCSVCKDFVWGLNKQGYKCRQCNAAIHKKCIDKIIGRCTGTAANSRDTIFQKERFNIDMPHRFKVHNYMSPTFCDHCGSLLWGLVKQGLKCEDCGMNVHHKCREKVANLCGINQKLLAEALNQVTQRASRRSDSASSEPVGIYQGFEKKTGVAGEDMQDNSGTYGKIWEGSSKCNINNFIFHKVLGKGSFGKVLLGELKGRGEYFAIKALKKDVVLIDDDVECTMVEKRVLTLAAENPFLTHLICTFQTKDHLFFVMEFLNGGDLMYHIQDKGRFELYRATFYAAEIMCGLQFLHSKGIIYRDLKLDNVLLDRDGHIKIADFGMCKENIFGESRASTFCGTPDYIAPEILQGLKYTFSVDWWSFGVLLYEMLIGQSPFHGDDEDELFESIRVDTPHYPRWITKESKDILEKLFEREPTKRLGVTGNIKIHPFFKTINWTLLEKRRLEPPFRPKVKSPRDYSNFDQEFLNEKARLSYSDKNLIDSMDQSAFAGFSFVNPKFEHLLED

[8] = target: T2, Serine/threonine-protein kinase D2 (Homo sapiens) (UniProt Q9BZL6); test: PKD2 (h) Upstate kinase activity assay; details: Compound concentration 10.0 uM
T2 sequence (whole entry): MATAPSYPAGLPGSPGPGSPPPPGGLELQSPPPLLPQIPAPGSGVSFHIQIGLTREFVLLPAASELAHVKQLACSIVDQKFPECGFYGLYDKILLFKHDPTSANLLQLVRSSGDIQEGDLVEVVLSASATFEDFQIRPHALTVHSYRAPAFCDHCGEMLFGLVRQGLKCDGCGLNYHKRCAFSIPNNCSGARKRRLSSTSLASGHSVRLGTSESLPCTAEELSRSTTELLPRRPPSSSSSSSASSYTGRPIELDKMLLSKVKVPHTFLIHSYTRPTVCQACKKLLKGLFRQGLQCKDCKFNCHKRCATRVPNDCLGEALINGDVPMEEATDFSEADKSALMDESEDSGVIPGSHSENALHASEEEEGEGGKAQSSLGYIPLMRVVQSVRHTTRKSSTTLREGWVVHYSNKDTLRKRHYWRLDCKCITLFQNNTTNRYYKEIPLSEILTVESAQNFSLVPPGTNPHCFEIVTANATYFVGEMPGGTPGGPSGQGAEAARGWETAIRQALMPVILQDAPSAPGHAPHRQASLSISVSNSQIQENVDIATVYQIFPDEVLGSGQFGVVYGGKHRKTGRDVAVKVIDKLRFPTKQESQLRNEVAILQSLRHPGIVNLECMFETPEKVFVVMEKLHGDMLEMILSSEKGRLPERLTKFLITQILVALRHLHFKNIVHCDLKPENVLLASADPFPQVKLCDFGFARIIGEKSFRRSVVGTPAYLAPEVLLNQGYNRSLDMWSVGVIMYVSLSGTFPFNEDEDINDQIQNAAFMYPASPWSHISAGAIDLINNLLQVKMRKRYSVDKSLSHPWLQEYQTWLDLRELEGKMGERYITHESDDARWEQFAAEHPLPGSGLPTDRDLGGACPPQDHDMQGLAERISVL

[9] = target: Epidermal growth factor receptor (Homo sapiens) (UniProt P00533); details: Compound concentration 100.0 nM
[10] = system: Epidermal growth factor receptor (Homo sapiens), P00533 [UNDEFINED MUTATION]; details: Compound concentration 100.0 nM
[11] = system: Epidermal growth factor receptor (Homo sapiens), P00533 [L858R,T790M]; details: Compound concentration 100.0 nM

Sequence of Protein kinase C zeta type (Homo sapiens) (Q05513 whole entry): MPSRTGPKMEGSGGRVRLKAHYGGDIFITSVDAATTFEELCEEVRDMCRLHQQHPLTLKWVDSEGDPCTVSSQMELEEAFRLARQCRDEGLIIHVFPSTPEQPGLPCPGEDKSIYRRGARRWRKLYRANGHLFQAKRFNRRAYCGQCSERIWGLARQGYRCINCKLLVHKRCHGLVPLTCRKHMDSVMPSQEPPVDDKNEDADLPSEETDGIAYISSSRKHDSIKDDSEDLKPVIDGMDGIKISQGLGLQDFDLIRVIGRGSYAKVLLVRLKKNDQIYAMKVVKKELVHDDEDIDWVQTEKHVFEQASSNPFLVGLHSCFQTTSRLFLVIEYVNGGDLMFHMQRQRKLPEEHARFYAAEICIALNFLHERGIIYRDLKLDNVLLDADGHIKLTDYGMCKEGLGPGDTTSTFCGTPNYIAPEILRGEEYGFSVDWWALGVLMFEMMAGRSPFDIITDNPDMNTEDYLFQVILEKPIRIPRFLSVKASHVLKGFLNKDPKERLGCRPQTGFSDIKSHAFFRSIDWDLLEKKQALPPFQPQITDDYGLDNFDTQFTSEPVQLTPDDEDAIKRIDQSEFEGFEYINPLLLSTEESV

Cc1c[nH]c2nccc(Oc3c(F)cc(Nc4cc(Cl)nc(N)n4)cc3F)c12 [BAY-549]
inactive: inhibition [1] -7% | inhibition [2] 52% | inhibition [3] 84% | inhibition [4] -8% | inhibition [5] 102% | inhibition [6] 72% | inhibition [7] 16% | inhibition [8] 28%

Cn1cc(Cl)c2c(Oc3c(F)cc(Nc4cc(Cl)nc(N)n4)cc3F)ccnc21 [BAY-4900]
inactive: residual activity [9] 97% | residual activity [10] 52% | residual activity [11] 84%
